What was measured:
[1] = molecular target: T1, recombinant human CK2 catalytic subunit (rhCK2α) (Homo sapiens, UniProt P68400); experiment: radiometric P81 filter isotopic kinase assay, CK2α; format: biochemical
T1 construct: made in house
Procedure: Synthetic peptide […] served as the substrate for CK2, while peptide […] was used as the substrate for PIM-1.
The synthesized compounds were evaluated for their inhibitory activity against human CK2α, the human CK2 holoenzyme, and PIM-1 using the P81 filter-based isotopic assay, as previously described. […] The experimental data were fitted to a dose–response curve using non-linear regression analysis (variable slope) Y = Bottom + (Top − Bottom)/(1 + 10^((LogIC50 − X) × HillSlope) equation in GraphPad Prism (Prism 9, version 9.0.1).

[2] = tested on: CK2 in CCRF-CEM cells (Ser529 in NF-κB p65); experiment: PhosFlow analysis of NF-κB p65 Ser529 phosphorylation, CCRF-CEM; format: cell-based, human; conditions: 16 µM, 24 h
Procedure: CCRF-CEM cells were prepared following the BD PhosFlow™ Protocol for Human PBMCs using NF-κB p65 (pS529)-PE (#558423), BD PhosFlow™ Perm Buffer III (#558050), Cytofix Fixation Buffer (#554655), and Stain Buffer FBS (#554656), all obtained from Becton Dickinson. Flow cytometric analysis was performed using a BD Accuri C6 Plus cytometer (Becton Dickinson) according to the manufacturer’s instructions.

[3] = tested on: MDA-MB-231 (breast carcinoma); experiment: MTT-based viability assay, MDA-MB-231; format: cell-based, human
Procedure: 3. The cytotoxicity of the newly obtained inhibitors, i.e., 1, 2, and 4 was tested towards four cell lines, i.e., CCRF-CEM (acute lymphoblastic leukemia ALL), MCF-7 (breast carcinoma), MDA-MB-231 (triple negative breast carcinoma), and Vero (Cercopithecus aethiops kidney).
The CCRF-CEM (acute lymphoblastic leukemia, ALL) and MDA-MB-231 (triple-negative breast adenocarcinoma) cell lines were obtained from the European Collection of Authenticated Cell Cultures (ECACC), while the MCF-7 (hormone-dependent breast adenocarcinoma) and Vero (Cercopithecus aethiops kidney) cell lines were purchased from the American Type Culture Collection (ATCC, Manassas, VA, USA). CCRF-CEM cells were maintained in RPMI-1640 medium, whereas MCF-7 and MDA-MB-231 cells were cultured in DMEM (Sigma-Aldrich Chemical Company, St. Louis, MO, USA). Vero cells were cultured in minimum essential medium eagle (MEM; Sigma-Aldrich). All media were supplemented with 10% fetal bovine serum (FBS), 2 mM L-glutamine, and antibiotics (100 U/mL penicillin and 100 µg/mL streptomycin) (Sigma-Aldrich). Cells were grown in 75-cm^2 culture flasks (Googlab Scientific, Rakocin, Poland) in a humidified atmosphere containing 5% CO2 at 37 °C. All experiments were performed using exponentially growing cultures. Stock solutions of the test compounds were prepared in DMSO and stored at –80 °C for up to one month.
Following incubation with the tested compounds, the MTT assay was carried out as previously described. Optical density was measured at 570 nm using a BioTek microplate reader (Winooski, VT, USA). All measurements were performed in at least three independent biological replicates.

MCF-7 cells [4] = experiment: mitochondrial membrane potential (ΔΨm) JC-1 assay, MCF-7; format: cell-based, human; conditions: 48 h
Procedure: The mitochondrial membrane potential was evaluated by flow cytometry using 5,5′,6,6′-tetrachloro-1,1′,3,3′-tetraethylbenzimidazolocarbocyanine iodide (JC-1; Sigma-Aldrich), as previously described.

MCF-7 cells [5] = experiment: cell cycle progression by flow cytometry, MCF-7; format: cell-based, human; conditions: 48 h
Procedure: Additionally, we observed the prolongation of G2/M in MCF-7 treated with 1 at the highest concentration. […] 1 induced G2/M phase arrest in MCF-7 with the highest effect detected for the 16 µM concentration, manifested as 32% cells in that stage, whereas in the control, the percentage of G2/M cells was 22%.
(§1) CCRF-CEM and MCF-7 cells were cultured in 6-well plates and treated with the tested compounds for 48 h. After exposure to the compounds, the cells were collected, washed with cold PBS, and fixed in 70% ethanol at –20 °C for at least 24 h. Subsequently, the cells were washed in PBS and stained according to the procedure previously described by our group. The cellular DNA content was measured by flow cytometry using a BD Accuri C6 Plus flow cytometer (BD Biosciences, San Jose, CA, USA). The resulting DNA histograms were analyzed with BD Accuri C6 Plus software (San Diego, CA, USA) to assess the distribution of cells across different phases of the cell cycle.

CCRF-CEM cells = experiment: cell cycle progression by flow cytometry, CCRF-CEM; format: cell-based, human; conditions: 16 µM, 48 h
Procedure: Since CK2 and PIM kinases regulate cell cycle progression, their inhibition may alter the distribution of cells across different cell cycle phases. […] For control cells, the percentage of G2/M cells was 17%. In addition to those changes, we observed cells in the sub-G1 phase, which are apoptotic cells. Accumulation of cells in this phase reflects DNA degradation characteristic of apoptotic cells. The largest percentage of these cells, i.e., 32% was determined in 16 µM 1-treated cells (Figure 6a,b).
as §1

[6] = tested on: PIM-1 kinase in CCRF-CEM cells (Ser112 in BAD); experiment: Western blot of phosphorylated BAD (Ser112), marker of PIM kinase activity, CCRF-CEM; format: cell-based, human; conditions: 16 µM, 24 h, untreated cells = 1
Procedure: After 24 h of treatment, we assessed site-specific phosphorylation of Ser529 in NF-κB p65 and Ser112 in BAD—a marker of PIM kinase activity—using Western blot analysis (Figure 8). The data for BAD confirmed intracellular inhibition of this kinase by the tested compounds in both cell lines in a dose-dependent manner. A statistically significant decrease in phosphorylated BAD was observed following treatment with 16 µM of compound 1, with relative protein levels reduced to 0.48 and 0.46 in CCRF-CEM and MCF-7 cells, respectively (Figure 8a–c).
Exponentially growing CCRF-CEM or MCF-7 cells were seeded at a density of 6 × 10^5 cells per 6 cm dish. Compounds were then added, with a final DMSO concentration of 0.5%. Cell lysates were prepared as previously described. The ECL substrate was used for signal detection, and the immunoblots were scanned using a G:BOX Chemi imaging system (Syngene, Cambridge, UK) equipped with GeneSys software, Version 1.4.3.0 (Syngene, Cambridge, UK).
For densitometric analysis, immunoblots were scanned using the G:BOX Chemi system (Syngene), and the band intensities of phosphorylated and total proteins were quantified with GeneSys software (Syngene, Cambridge, UK). The levels of phosphorylated proteins were normalized to GAPDH, with the value for untreated cells set to 1, and subsequently expressed as a percentage relative to the appropriate control.

T1 sequence (P68400 whole entry): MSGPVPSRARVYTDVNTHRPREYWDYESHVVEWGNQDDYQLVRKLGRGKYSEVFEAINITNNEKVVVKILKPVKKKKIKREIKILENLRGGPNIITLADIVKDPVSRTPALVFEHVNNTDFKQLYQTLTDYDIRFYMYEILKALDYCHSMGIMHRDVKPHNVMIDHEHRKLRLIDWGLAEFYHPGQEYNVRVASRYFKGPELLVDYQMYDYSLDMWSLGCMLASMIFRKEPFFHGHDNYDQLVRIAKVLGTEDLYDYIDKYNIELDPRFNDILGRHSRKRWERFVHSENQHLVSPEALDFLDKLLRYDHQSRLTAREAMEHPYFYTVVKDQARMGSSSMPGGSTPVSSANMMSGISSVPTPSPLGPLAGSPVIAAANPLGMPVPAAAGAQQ

Work on `CC(=O)Cn1cnc2c(Br)c(Br)c(Br)c(Br)c21` [compound 1, 1-(4,5,6,7-tetrabromo-1H-benzimidazol-1-yl)propan-2-one] yielded an IC50 [1] of 6.65 ± 0.74 µM, a remaining activity at 2 µM ([1]; cpd. concentration 2 μM, read-out: CK2α Residual Activity [%]) of 58.5 ± 2.2% and a remaining activity at 5 µM ([1]; cpd. concentration 5 μM, read-out: CK2α Residual Activity [%]) of 32.3 ± 0.3%. For the same compound, the remaining activity at 20 µM ([1]; cpd. concentration 20 μM, read-out: CK2α Residual Activity [%]) was 10.2 ± 0.6%, the “p65-P-negative CCRF-CEM cells” value [2] was 29% and the IC50 ([3]; Homo sapiens, MDA-MB-231, MTT, 48 h, read-out: IC50 [µM] MDA-MB-231) was 21.2 ± 0.76 µM. The “SI (selectivity index) MDA-MB-231” value ([3]; IC50 for Vero/IC50 for cancer cells) was 0.95, the “MCF-7 cells with reduced ΔΨm” value (MCF-7 cells [4]; 16 µM) was 26% and the “MCF-7 cells with reduced ΔΨm” value (MCF-7 cells [4]; 32 µM) was 19%. The “MCF-7 cells in the S phase” value (MCF-7 cells [5]; 8 µM, control 17%) was 11%, the “MCF-7 cells in the G2/M phase” value (MCF-7 cells [5]; 16 µM, control 22%) was 32% and the “CCRF-CEM cells in the sub-G1 phase” value (CCRF-CEM cells) was 32%. For the same compound, the “CCRF-CEM cells in the G2/M phase” value (CCRF-CEM cells; control 17%) was 10%, the “CCRF-CEM cells in the S phase” value (CCRF-CEM cells; control 33%) was 20% and the “relative level of phosphorylated BAD (Ser112), CCRF-CEM” value [6] was 0.48.

From PMC12193579, “Pro-Apoptotic Activity of 1-(4,5,6,7-Tetrabromo-1H-benzimidazol-1-yl)propan-2-one, an Intracellular Inhibitor of PIM-1 Kinase in Acute Lymphoblastic Leukemia and Breast Cancer Cells” (International Journal of Molecular Sciences, 2025)
